Results from ChEMBL document CHEMBL1126122, “Non-prostanoid thromboxane A2 receptor antagonists with a dibenzoxepin ring system. 2” (J Med Chem, 1992).

species on record: Cavia porcellus; assay: Compound was tested for its binding affinity at TXA2/PGH2 receptor by measuring its ability to displace [3H]U-46619 from guinea pig platelets at 0.1 uM; conditions: not given

Going from `COC(=O)c1ccc2c(c1)/C(=C/Cn1cnc3cc(C)c(C)cc31)c1ccccc1CO2` to `Cc1cc2ncn(C/C=C3\c4ccccc4COc4ccc(C(=O)N5CCOCC5)cc43)c2cc1C`, the inhibition falls from 31% to -4%.

Going from `Cc1cc2ncn(C/C=C3\c4ccccc4COc4ccc(C(=O)Nc5ccccc5C(=O)O)cc43)c2cc1C` to `Cc1nc2ccccc2n1C/C=C1\c2ccccc2COc2ccc(C(=O)O)cc21`, the inhibition falls from 6% to 4%.

First: O=C(O)c1ccc2c(c1)/C(=C\CCNS(=O)(=O)c1ccccc1)c1ccccc1CO2
Second: O=C(O)c1ccc2c(c1)/C(=C/Cn1nnc3ccccc31)c1ccccc1CO2
The inhibition of the first is higher: 50% for the first, 35% for the second.

Going from `O=C(O)c1ccc2c(c1)C(SCCn1cnc3ccccc31)c1ccccc1CO2` (stereo not drawn) to `O=C(O)c1ccc2c(c1)/C(=C/Cn1cnc3cnccc31)c1ccccc1CO2`, the inhibition falls from 9% to -6%.

tested on: not listed separately; assay: Binding affinity at Thromboxane A2/ Prostaglandin H2 receptor by measuring its ability to displace [3H]U-46619 from guinea pig platelets at a compound concentration of 0.1 uM; conditions: Cavia porcellus

`CSc1nc2ccccc2n1C/C=C1\c2ccccc2COc2ccc(C(=O)O)cc21` gave an inhibition of 11%.

target: not listed separately; assay: Binding affinity at TXA2/PGH2 receptor by measuring its ability to displace [3H]U-46619 from guinea pig platelets; conditions: not given

With `O=C(O)c1ccc2c(c1)C(SCCNS(=O)(=O)c1ccccc1)c1ccccc1CO2` (stereo not drawn) the Ki was 32 nM.

same assay, conditions: Cavia porcellus; concentration not given here

`O=C(O)c1ccc2c(c1)/C(=C/CCNS(=O)(=O)c1ccccc1)c1ccccc1CO2` showed an inhibition of -6%.

species on record: Cavia porcellus; assay: Inhibitory effect on the U-46619 induced platelet aggregation was determined ex vivo in the guinea pig; assay type: functional; conditions: not given

Going from `O=C([O-])c1ccc2c(c1)/C(=C\Cn1cnc3ccccc31)c1ccccc1CO2.[Na+]` to `O=C(O)c1ccc2c(c1)/C(=C/CNS(=O)(=O)c1ccccc1)c1ccccc1CO2`, the “Inhibition of U-46619-induced platelet aggregation” value rises from 0% to 25%.

Going from `O=C(O)c1ccc2c(c1)C(SCCNS(=O)(=O)c1ccccc1)c1ccccc1CO2` (stereo not drawn) to `O=C(O)c1ccc2c(c1)/C(=C\CCNS(=O)(=O)c1ccccc1)c1ccccc1CO2`, the “Inhibition of U-46619-induced platelet aggregation” value rises from 11.8% to 59.3%.

In the case of `O=C(O)c1ccc2c(c1)C(SCCc1nc3ccccc3[nH]1)c1ccccc1CO2` (stereo not drawn), the “Inhibition of U-46619-induced platelet aggregation” value is reported as 66.3%.

Work on `O=C(O)Cc1ccc(CCNS(=O)(=O)c2ccc(Cl)cc2)cc1` [DALTROBAN] yielded an Aggregation of 0%.

tested on: not listed separately; assay: Binding affinity at TXA2/PGH2 receptor by displacement of [3H]U-46619 from human platelets; conditions: not given

Compared with `Cc1cccc2ncn(C/C=C3\c4ccccc4COc4ccc(C(=O)O)cc43)c12`, `Cc1cccc2c1ncn2C/C=C1\c2ccccc2COc2ccc(C(=O)O)cc21` is 4.8-fold higher in Ki: 8 nM for the first, 38 nM for the second. The first binds more tightly here.

`COc1cc(OC)c2c(c1)ncn2C/C=C1\c2ccccc2COc2ccc(C(=O)O)cc21` and `COc1cc(OC)c2ncn(C/C=C3\c4ccccc4COc4ccc(C(=O)O)cc43)c2c1` are within 1.5-fold of each other in Ki: 6.7 nM for the first, 9.1 nM for the second.

Compared with `COc1cc2ncn(C/C=C3\c4ccccc4COc4ccc(C(=O)O)cc43)c2cc1OC`, `Cc1cc2ncn(C/C=C3\c4ccccc4COc4ccc(C(=O)O)cc43)c2cc1C` is 1.8-fold lower in Ki: 2.2 nM for the first, 1.2 nM for the second.

Compared with `Cc1cc(C)c2ncn(C/C=C3\c4ccccc4COc4ccc(C(=O)O)cc43)c2c1`, `Cc1ccc2c(ncn2C/C=C2\c3ccccc3COc3ccc(C(=O)O)cc32)c1C` is 6.1-fold higher in Ki: 7.6 nM for the first, 46 nM for the second. The first binds more tightly here.

Compared with `O=C(O)c1ccc2c(c1)/C(=C/Cn1cnc3ccc(Cl)cc31)c1ccccc1CO2`, `O=C(O)c1ccc2c(c1)/C(=C/Cn1cnc3cc(Cl)ccc31)c1ccccc1CO2` is 1.7-fold lower in Ki: 19 nM for the first, 11 nM for the second. The second binds more tightly here.

Compared with `Cc1ccc2ncn(C/C=C3\c4ccccc4COc4ccc(C(=O)O)cc43)c2c1`, `Cc1ccc2c(c1)ncn2C/C=C1\c2ccccc2COc2ccc(C(=O)O)cc21` is 9.2-fold higher in Ki: 12 nM for the first, 110 nM for the second.

Compared with `O=C(O)c1ccc2c(c1)/C(=C/Cn1cnc3cc(C(F)(F)F)ccc31)c1ccccc1CO2`, `O=C(O)c1ccc2c(c1)/C(=C/Cn1cnc3cc(F)ccc31)c1ccccc1CO2` is 5.7-fold lower in Ki: 85 nM for the first, 15 nM for the second.

Going from `O=C(O)c1ccc2c(c1)/C(=C/Cn1cnc3cc4c(cc31)OCO4)c1ccccc1CO2` to `COc1ccc2ncn(C/C=C3\c4ccccc4COc4ccc(C(=O)O)cc43)c2c1`, the Ki rises from 3.8 nM to 7.4 nM (1.9-fold). The first binds more tightly here.

`O=C(O)c1ccc2c(c1)/C(=C/Cn1cnc3ccc([N+](=O)[O-])cc31)c1ccccc1CO2` and `O=C(O)c1ccc2c(c1)/C(=C/Cn1cnc3cc([N+](=O)[O-])ccc31)c1ccccc1CO2` are within 1.5-fold of each other in Ki: 9.1 nM for the first, 9.2 nM for the second.

Compared with `O=C(O)c1ccc2c(c1)/C(=C/Cn1cnc3ccc(C(=O)NCc4ccccc4)cc31)c1ccccc1CO2`, `O=C(O)c1ccc2c(c1)/C(=C/Cn1cnc3cc(C(=O)NCc4ccccc4)ccc31)c1ccccc1CO2` is 1.9-fold lower in Ki: 14 nM for the first, 7.4 nM for the second. The second binds more tightly here.

In the case of `COc1ccc2c(c1)ncn2C/C=C1\c2ccccc2COc2ccc(C(=O)O)cc21`, the Ki is reported as 17 nM.
